Measurements as given in the supplement of paper PMC9663587.

Experiments:
Test in all cases: GR value, 72 h; higher = faster growth (1 = untreated, <0 = killing);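 also: breast cancer and non-malignant breast epithelial lines, nine half-log doses, viable cells counted by Hoechst and LIVE/DEAD dye imaging versus time-zero plates and DMSO controls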
[1] = compound: CN1CC[C@H](c2c(O)cc(O)c3c(=O)cc(-c4ccccc4Cl)oc23)[C@H](O)C1 [Flavopiridol]
[2] = compound: CC(=O)c1c(C)c2cnc(Nc3ccc(N4CCN(CCOCCOCCOCCNC(=O)COc5cccc6c5C(=O)N(C5CCC(=O)NC5=O)C6=O)CC4)cn3)nc2n(C2CCCC2)c1=O [BSJ-03-123]
[3] = compound: CN(C)C/C=C/C(=O)Nc1ccc(C(=O)Nc2cccc(Nc3ncc(Cl)c(-c4c[nH]c5ccccc45)n3)c2)cc1 [THZ1]
[4] = compound: CN(C)C/C=C/C(=O)Nc1ccc(C(=O)N2CCC[C@@H](Nc3ncc(Cl)c(-c4c[nH]c5ccccc45)n3)C2)cc1 [THZ531]
[5] = compound: CN(C)C(=O)c1cc2cnc(Nc3ccc(N4CCNCC4)cn3)nc2n1C1CCCC1 [LEE011/Ribociclib]

BT20 was tested, and the GR value ([1]; 0.01 µM) was 0.993 GR, the GR value ([1]; 0.03162 µM) was 0.835 GR and the GR value ([1]; 0.1 µM) was 0.593 GR. It also gave a GR value ([1]; 0.3162 µM) of -0.0024 GR, a GR value ([1]; 1 µM) of -0.639 GR and a GR value ([2]; 0.001 µM) of 0.934 GR. It also gave a GR value ([2]; 0.003162 µM) of 0.738 GR, a GR value ([2]; 0.01 µM) of 0.759 GR and a GR value ([2]; 0.03162 µM) of 0.7 GR. It also gave a GR value ([2]; 0.1 µM) of 0.664 GR, a GR value ([2]; 0.3162 µM) of 0.528 GR and a GR value ([2]; 1 µM) of 0.445 GR. It also gave a GR value ([2]; 3.162 µM) of 0.365 GR, a GR value ([2]; 10 µM) of 0.0085 GR and a GR value ([3]; 0.0001 µM) of 0.946 GR. It also gave a GR value ([3]; 0.0003162 µM) of 1.04 GR, a GR value ([3]; 0.001 µM) of 1 GR and a GR value ([3]; 0.003162 µM) of 1.02 GR. It also gave a GR value ([3]; 0.01 µM) of 1.03 GR, a GR value ([3]; 0.03162 µM) of 1.01 GR and a GR value ([3]; 0.1 µM) of 1.01 GR. It also gave a GR value ([3]; 0.3162 µM) of 0.807 GR, a GR value ([3]; 1 µM) of -0.409 GR and a GR value ([4]; 0.0001 µM) of 1 GR. It also gave a GR value ([4]; 0.0003162 µM) of 0.93 GR, a GR value ([4]; 0.001 µM) of 0.967 GR and a GR value ([4]; 0.003162 µM) of 0.988 GR. The GR value ([4]; 0.01 µM) was 1.09 GR, the GR value ([4]; 0.03162 µM) was 1 GR and the GR value ([4]; 0.1 µM) was 0.927 GR. The GR value ([4]; 0.3162 µM) was 0.907 GR, the GR value ([4]; 1 µM) was 0.647 GR and the GR value ([5]; 0.001 µM) was 0.818 GR. For the same cell line, the GR value ([5]; 0.003162 µM) was 0.759 GR, the GR value ([5]; 0.01 µM) was 0.624 GR and the GR value ([5]; 0.03162 µM) was 0.672 GR. For the same cell line, the GR value ([5]; 0.1 µM) was 0.651 GR, the GR value ([5]; 0.3162 µM) was 0.49 GR and the GR value ([5]; 1 µM) was 0.463 GR. The GR value ([5]; 3.162 µM) was 0.384 GR and the GR value ([5]; 10 µM) was 0.0703 GR.
